Test results as given in patent US20240174690A1, “ANNULATED 2-AMINO-3-CYANO THIOPHENES AND DERIVATIVES FOR THE TREATMENT OF CANCER” (BOEHRINGER INGELHEIM INTERNATIONAL GMBH, priority 2021, published 2024).

Legend:
[1] = Caco-2 assay (permeability PappAB, PappBA, efflux ratio); type: in vitro ADME; conditions: human, Caco-2, 10 μM test compound, pH 7.4; for Papp A→B at 90 min, 10 μM: apical to basolateral; for efflux ratio at 90 min, 10 μM: efflux ratio PappBA/PappAB, read-out: Caco ER
Procedure, shortened: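 Bidirectional permeability (apical-to-basolateral and reverse) through polarized Caco-2 monolayers, BSA 0.25% on each side, 37 °C. Donor and receiver sampled at 0-90 min after 25-30 min preincubation, analysed by HPLC/MS/MS. Apparent permeabilities derived from transfer rate normalised to area and t=0 donor concentration; ER taken as PappBA over PappAB.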

CYP3A4 = CYP3A4 (Homo sapiens (Human), UniProt P08684); assay: Mechanism based inhibition of CYP3A4 assay (MBI 3A4); type: in vitro ADME; conditions: hydroxy-midazolam formation after 30 min vs 0 min preincubation, 25 uM, human liver microsomes
Sequence of CYP3A4 (P08684 whole entry): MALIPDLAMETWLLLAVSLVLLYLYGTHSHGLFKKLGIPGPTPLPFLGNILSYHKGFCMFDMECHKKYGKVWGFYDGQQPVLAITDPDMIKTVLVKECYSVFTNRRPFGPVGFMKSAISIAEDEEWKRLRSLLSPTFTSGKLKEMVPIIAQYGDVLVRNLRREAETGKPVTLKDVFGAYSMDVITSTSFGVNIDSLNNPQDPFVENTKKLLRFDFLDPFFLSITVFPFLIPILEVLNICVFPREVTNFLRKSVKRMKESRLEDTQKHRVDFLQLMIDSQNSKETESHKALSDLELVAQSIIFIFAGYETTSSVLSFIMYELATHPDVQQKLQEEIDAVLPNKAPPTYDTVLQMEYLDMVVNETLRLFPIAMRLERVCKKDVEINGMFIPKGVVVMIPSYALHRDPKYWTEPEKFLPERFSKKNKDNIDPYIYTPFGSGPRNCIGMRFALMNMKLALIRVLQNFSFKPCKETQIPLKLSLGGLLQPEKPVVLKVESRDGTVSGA
Procedure, shortened: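 Readout is hydroxy-midazolam formed after 30 min preincubation relative to 0 min, measured by LC/MS-MS after acetonitrile quench. Following preincubation, samples diluted 1:10 and incubated 15 min with midazolam substrate.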

SK-CO-1 cells = assay: SK-CO-1 CTG proliferation assay (120 h) (CRC, G12V); type: cell-based; conditions: Homo sapiens; SK-CO-1 cells (CRC, G12V), CTG 120 h
Procedure, shortened: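 Compound exposure lasted 120 h in KRAS G12V SK-CO-1 cells seeded overnight at 500 cells/well in 10% FCS EMEM. CellTiter-Glo RLU normalised to DMSO wells gave percent viability, and a four-parameter model fit yielded IC50.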

[2] = test system: KRAS G12D-dependent Ba/F3 cells; assay: Ba/F3 proliferation assay, KRAS G12D; type: cell-based; conditions: Mus musculus, BaF3, 72 h, AlamarBlue
Procedure, shortened: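 IL-3-independent Ba/F3 lines carrying retrovirally introduced KRAS G12C, G12D or G12V; puromycin withdrawn ~10 days before assay. Duplicate treatments, AlamarBlue fluorescence readout, curve-fit analysis.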

Row | Papp A→B at 90 min, 10 μM [1] | efflux ratio at 90 min, 10 μM [1] | MBI 3A4 (CYP3A4) | IC50 (SK-CO-1 cells) | IC50 [2] | SMILES
1 | 15 ×10⁻⁶ cm/s | 1.5 | 71% | 193 nM | 32 nM | C[C@H](Oc1cc(C2CCCO2)nc(-c2noc3c2CCC[C@@]32CCCc3sc(N)c(C#N)c32)n1)[C@@H]1CCCN1C (some centres unmarked) [II-44]
2 | 10 ×10⁻⁶ cm/s | 1.2 | 70% | 46 nM | 34 nM | C[C@H](Oc1cc(-c2ccn(C[C@@H]3CCCO3)n2)nc(-c2noc3c2CCC[C@@]32CCCc3sc(N)c(C#N)c32)n1)[C@@H]1CCCN1C [II-43]
3 | 0.2 ×10⁻⁶ cm/s | 121 | 81% | 562 nM | 26 nM | C[C@H](Oc1cc([C@@H]2CCN(C)C2)nc(-c2noc3c2CCC[C@@]32CCCc3sc(N)c(C#N)c32)n1)[C@@H]1CCCN1C [II-37]
4 | 1.4 ×10⁻⁶ cm/s | 21.4 | 70% | 896 nM | 24 nM | C[C@H](Oc1cc(N2CCN(C)C3(COC3)C2)nc(-c2noc3c2CCC[C@@]32CCCc3sc(N)c(C#N)c32)n1)[C@@H]1CCCN1C [II-13]
5 | – | 0.6 | 37% | 2070 nM | 34 nM | C[C@H](Oc1cc(N2CCN(C)C3(CC3)C2)nc(-c2onc3c2CCC[C@@]32CCCc3sc(N)c(C#N)c32)n1)[C@@H]1C[C@@H](F)CN1C [I-39]
6 | 11 ×10⁻⁶ cm/s | 5.8 | 58% | 3 nM | 37 nM | C[C@H](Oc1cc(-n2ccc(C(=O)NC3(C)COC3)n2)nc(-c2noc3c2CCC[C@@]32CCCc3sc(N)c(C#N)c32)n1)[C@@H]1CCCN1C [II-26]
7 | 0.8 ×10⁻⁶ cm/s | 28.8 | 91% | 655 nM | 116 nM | C[C@H](Oc1nc(-c2noc3c2CCC[C@@]32CCCc3sc(N)c(C#N)c32)cc(N2C[C@H](C)N[C@@H](C)C2)n1)[C@@H]1CCCN1C [II-46]
8 | 2.6 ×10⁻⁶ cm/s | 6.7 | 64% | 892 nM | 63 nM | C[C@H](Oc1cc(N2C[C@H](C)N(C)[C@@H](C)C2)nc(-c2onc3c2CCC[C@@]32CCCc3sc(N)c(C#N)c32)n1)[C@@H]1CCCN1C [I-43]
9 | 0.3 ×10⁻⁶ cm/s | 68 | 80% | 1660 nM | 116 nM | C[C@H](Oc1cc(N2C[C@@H](N(C)C)[C@@H](O)C2)nc(-c2noc3c2CCC[C@@]32CCCc3sc(N)c(C#N)c32)n1)[C@@H]1CCCN1C [II-10]
10 | 2 ×10⁻⁶ cm/s | 18.5 | 77% | 31 nM | 42 nM | C[C@H](Oc1cc(-c2ccn(C[C@@H](C)O)n2)nc(-c2onc3c2CCC[C@@]32CCCc3sc(N)c(C#N)c32)n1)[C@@H]1CCCN1C [I-30]
11 | 1.2 ×10⁻⁶ cm/s | 20.8 | 51% | 2090 nM | 5 nM | C[C@H](Oc1cc(N2CCNC3(CCC3)C2)nc(-c2onc3c2CCC[C@@]32CCCc3sc(N)c(C#N)c32)n1)[C@@H]1CCCN1C [I-3]
12 | 1.1 ×10⁻⁶ cm/s | 22.7 | 77% | 3 nM | 25 nM | C[C@H](Oc1cc(-n2ccc(C(=O)NC3COC3)n2)nc(-c2noc3c2CCC[C@@]32CCCc3sc(N)c(C#N)c32)n1)[C@@H]1CCCN1C [II-25]
